In data set [1] the test system is circulating cytokines, chemokines, growth factors. The data set is classed as in vivo, mice. Particulars: mouse, in vivo.
Data set [2] is described as follows: Salt screening for dimer stability (SE-HPLC). Particulars: buffer exchange, data not shown. The data set is classed as physicochemical. As for the experimental part: Formulations were prepared with the delivery construct at 20 g/Lin 10 mM Sodium Phosphate at pH 7.0 with the salts and salt concentrations as indicated in Table 53. The percentage of the IL-10 delivery construct present in dimer form, monomer form, and high molecular weight aggregates (HMW Agg) was assessed by size exclusion HPLC as indicated previously.

A short description of data set [3]: Single oral capsule dose in NHP: plasma caffeine by LC-MS/MS. The data set is classed as in vivo, Macaca fascicularis. On the procedure: In order to quantitate plasma caffeine levels, an LC-MS/MS detection system was employed. A 25-μL matrix aliquot was fortified with 25 μL of 2.00 μg/mL caffeine-trimethyl-^13C3 internal standard working solution. Analytes were isolated through supported liquid extraction (SLE). A portion of the eluate was transferred and evaporated under a nitrogen stream at approximately 45° C., and the remaining residue reconstituted with 500 μL of water/acetonitrile (95:5, v/v). The final extract was analyzed via HPLC with MS/MS detection using positive ion electrospray and reverse phase chromatography. Caffeine concentration was determined using similarly run calibration controls.
IL-10 delivery construct dosing at multiple fixed doses in non-naïve adult male Macaca fascicularis was conducted by Valley Biosystems (West Sacramento, Calif.). […] Dosing groups are described in TABLE 45.
Blood samples were collected in K2EDTA tubes from each animal pre-dose and at 0.5, 1, 2, 3, 4, 5, 6, 7, 8, and 24 hours post-dose. Animals were returned to home cages following the 2-hour sample collection. Following physical restraint, blood samples were collected via direct venous puncture using a cephalic, femoral or saphenous vein, which were processed to plasma and stored frozen at −60° C. until shipment.

Data set [4] in a line: Surfactant evaluation under shear stress (visual, turbidity, SEC-HPLC). The data set is classed as physicochemical. The conditions noted are these: for SEC-HPLC forms of construct (HMW, dimer, monomer) with surfactant: 1×PBS, before/after vortexing. As for the experimental part:
Following vortexing, the solution was visually inspected. The sample without a surfactant was slightly hazy while the samples with the surfactant were clear after vortexing. The turbidity (340-360 nm) of the solution was assessed after vortexing.
SEC-HPLC was carried out on the IL-10 delivery construct formulations before (FIG. 93) and after (FIG. 94) vortexing (TABLE 48).

For data set [5] the following is noted: initial liquid formulation screen.
Data set [6] can be described thus: Intraluminal injection in T-cell transfer colitis model, rhIL-10 ELISA. The conditions noted are these: 159 pmoles intraluminal. The data set is classed as in vivo, BALB/c and SCID mice. On the procedure: This study was conducted to examine the potential for the carrier protein to transport rhIL-10 from the intestinal lumen into the submucosal region in inflamed intestinal tissue. The T lymphocyte (T cell) transfer model was used as it is a well-established model of induced chronic colitis in mice and presents many of the essential immunological hallmarks observed in IBD patients. Nine BALB/c mice and twelve SCID mice, including nine with the colitis-like model of inflammation, were dosed with 20 μl of test article via intraluminal injection into the distal ileum and the proximal, middle and distal colon.
PBS vehicle was administered to healthy BALB/c mice and both healthy and induced colitis SCID mice (n=3/group). In each group, two mice were terminated 10 minutes after intraluminal injections, and one was terminated 40 minutes after intraluminal injections. Intestinal tissue and serum were collected. Collected tissue was fixed, embedded, sectioned and H&E stained for histological assessment of inflammatory status. ELISA analysis to measure rhIL 10 was performed on lysates prepared from intestinal tissue and serum (FIGS. 106A-106D).

Data set [7] deals with STAT3. The conditions noted are these: 20 min stimulation.
In data set [8] the test system is STAT3, IL-1Ra. Briefly: pSTAT3/STAT3 and systemic IL-1Ra in non-inflamed mice (ELISA MSD). The data set is classed as in vivo.
Data set [9] relates to STAT3 phosphorylation. The experiment in a line: pSTAT3 and hIL-10 immunofluorescence in intestine 40 min post oral gavage. Format: in vivo, rat. As for the experimental part: This observation is consistent with findings in mice that intestinal epithelial cells can express IL-10 receptors at their apical surface under certain conditions associated with development and maintenance of barrier function. […] In order to quantify how test articles affected intestinal IL-10 signal transduction pathways, image analysis was performed: high-throughput image batches were collected, segmented by epithelial versus Lamina propria localization, and then by cellular features.

Data set [10] can be described thus: Dimer purity during compaction/granulation (SEC). Format: physicochemical. The conditions noted are these: slugging/granulation formulation intermediates. On the procedure: The compatibility of the IL-10 delivery construct was evaluated for the initial steps of tablet formation. Blending and compaction processes were conducted. Both roller compaction and slugging was conducted, with subsequent milling to granules in each case. In order to explore excipient functionality and compatibility, different excipients were included in the three formulations.
Roller compaction was conducted at 2 forces, and the resulting ribbons were individually granulated. Materials were reconstituted in PBS at 0.65 mg/mL SEQ ID NO: 5 and filtered with 0.2 um filter (Advantec) before SEC analysis. Samples were also incubated at 40° C. for two weeks before reconstitution and analysis.
The same analysis was conducted for the intermediates generated in the slugging/granulation process (TABLE 30). As well as the different compaction method, the slugging/granulation batch differed in binder and lubricant composition.

Data on nine molecules can be found in US11466067B2 (priority 2019, dated 2022).

As to `Nc1ccc(O)c(C(=O)O)c1` [5-ASA, 5-aminosalicylic acid, reference compound], the “oxazolone-induced increase in plasma GCSF/CSF3” value in data set [1] is given as “attenuated”.

As for `N.N.O=S(=O)(O)O` [NH4SO4, ammonium sulfate], the “behaviour of construct at higher salt concentrations” value in data set [2] is “precipitate during buffer exchange”. In the case of `O=S(=O)([O-])[O-].[Na+].[Na+]` [Na2SO4, sodium sulfate], the “behaviour of construct at higher salt concentrations” value in [2] is listed as “precipitate during buffer exchange”. Consider `Cn1c(=O)c2c(ncn2C)n(C)c1=O` [caffeine], for which, in [3] (all doses), the “plasma caffeine Tmax” value is 4 hours post dose. Besides, the “time at which absorption of caffeine was observable (capsule opening)” value in [3] (cynomolgus monkey, in vivo) was 2-3 hours post dose. For the molecule poloxamer 188, the “SEC-HPLC forms of construct (HMW, dimer, monomer) with surfactant” value (shortened to “SEC-HPLC forms of construct”) in data set [4] was “seemed to stabilize the IL-10 delivery construct”. In addition, the “aggregation of target construct under shear stress” value in [5] is recorded as “reduced aggregation”. polysorbate 20: the “turbidity (340-360 nm) after vortexing” value in data set [4] (0.1% in 1×PBS) is reported as “increase in absorbance was also observed”. For the same molecule, in data set [4], the “SEC-HPLC forms of construct” value was “most amount of monomer before vortexing”. For the molecule polysorbate 80, in data set [4], the “SEC-HPLC forms of construct” value is “increase in HMW aggregates and monomers”.

Take “rhIL-10: recombinant human IL-10 (SEQ ID NO: 2), commercial preparation used as comparator”: in data set [6], the “rhIL-10 in serum of inflamed animals” value is listed as “minimal amounts”. Moreover, the “amplitude of pSTAT3/total STAT3” value in data set [7] is 2.19%. The “increase in ratio of pSTAT3 to total STAT3” value in data set [8] (construct 1 mg/kg, rhIL-10 0.9 mg/kg (equimolar), non-inflamed colon tissue) is “did not significantly alter”. The “increase of systemic IL-1Ra” value in data set [8] (construct 10 mg/kg, rhIL-10 3 mg/kg (equimolar)) is “did not significantly increase”. The “hIL-10 and pSTAT3 in intestinal tissue” value in data set [9] is on record as “pSTAT3 induction in enterocytes but not in cells within the Lamina propria”.

B1: Drug Substance (DS) (protein)
chain: MVEEALNIFDECRSPCSLTPEPGKPIQSKLSIPSDVVLDEGVLYYSMTINDEQNDIKDEDKGESIITIGEFATVRATRHYVNQDAPFGVIHLDITTENGTKTYSYNRKEGEFAINWLVPIGEDSPASIKISVDELDQQRNIIEVPKLYSIDLDNQTLEQWKTQGNVSFSVTRPEHNIAISWPSVSYKAAQKEGSRHKRWAHWHTGLALCWLVPMDAIYNYITQQNCTLGDNWFGGSYETVAGTPKVITVKQGIEQKPVEQRIHFSKGNAMSALAAHRVCGVPLETLARSRKPRDLTDDLSCAYQAQNIVSLFVATRILFSHLDSVFTLNLDEQEPEVAERLSDLRRINENNPGMVTQVLTVARQIYNDYVTHHPGLTPEQTSAGAQAGGGGSGGGGSGGGGSPGQGTQSENSCTHFPGNLPNMLRDLRDAFSRVKTFFQMKDQLDNLLLKESLLEDFKGYLGCQALSEMIQFYLEEVMPQAENQDPDIKAHVNSLGENLKTLRLRLRRCHRFLPCENKSKAVEQVKNAFNKLQEKGIYKAMSEFDIFINYIEAYMTMKIRN
modifications: dimer
Turning to B1, in [10], the “Purity (dimer purity)” value is listed as 81.2.
